Assay [1] addresses Human immunodeficiency virus type 1 reverse transcriptase (Human immunodeficiency virus 1) (UniProt Q72547). Nature of the assay: Inhibition of wild type HIV1 p66/p51 reverse transcriptase assessed as apparent Vmax at 150 nM using 10 to 500 uM poly(rA)/oligo(dT) as templates in presence of fixed concentration of [3H]dTTP by Michaelis-Menten analysis (reference value: 10 +/- 0.5%).

Assay [2] has as its system Human immunodeficiency virus 1. In words: Inhibition of HIV1 p66/p51 reverse transcriptase K103N/Y181C double mutant assessed as apparent Km of substrate at 300 nM using […] as templates in presence of fixed concentration of [3H]dTTP by Michaelis-Menten analysis (reference value: 106+/- 16 nM).
Assay [3] concerns Human immunodeficiency virus 1. Nature of the assay: Inhibition of HIV1 p66/p51 reverse transcriptase K103N/Y181C double mutant assessed as apparent Vmax at 150 nM using fixed concentration of poly(rA)/oligo(dT) as templates in presence of 2 to 100 uM of [3H]dTTP by Michaelis-Menten analysis (reference value: 9.6 +/- 0.4%).
Assay [4] deals with Human immunodeficiency virus 1. In words: Inhibition of HIV1 p66/p51 reverse transcriptase K103N/Y181C double mutant assessed as apparent Km of substrate at 75 nM using fixed concentration of poly(rA)/oligo(dT) as templates in presence of 2 to 100 uM of [3H]dTTP by Michaelis-Menten analysis (reference value: 9.2 +/- 1.4 uM).
Assay [5] deals with Human immunodeficiency virus 1. Nature of the assay: Inhibition of HIV1 p66/p51 reverse transcriptase K103N/Y181C double mutant assessed as apparent Km of substrate at 300 nM using fixed concentration of poly(rA)/oligo(dT) as templates in presence of 2 to 100 uM of [3H]dTTP by Michaelis-Menten analysis (reference value: 9.2 +/- 1.4 uM).
Assay [6] can be described thus: Binding affinity to HIV-1 p66/p51 reverse transcriptase K103N/Y181C double mutant/nucleic acid/dTTP ternary complex using poly(rA)/oligo(dT) as templates in presence of [3H]dTTP. Set-up: species or system Human immunodeficiency virus 1.
Assay [7] deals with Human immunodeficiency virus type 1 reverse transcriptase (Human immunodeficiency virus 1) (UniProt Q72547). Nature of the assay: Binding affinity to wild type HIV-1 p66/p51 reverse transcriptase/nucleic acid binary complex assessed as association constant using poly(rA)/oligo(dT) as templates in presence of [3H]dTTP.
For assay [8] the target is unchanged. In words: Binding affinity to wild type HIV-1 p66/p51 reverse transcriptase/nucleic acid binary complex assessed as dissociation constant using poly(rA)/oligo(dT) as templates in presence of [3H]dTTP.
Assay [9] shares this target. In words: Binding affinity to wild type HIV-1 p66/p51 reverse transcriptase/nucleic acid/dTTP ternary complex assessed as dissociation constant using poly(rA)/oligo(dT) as templates in presence of [3H]dTTP.
Assay [10] concerns Human immunodeficiency virus 1. Nature of the assay: Binding affinity to HIV-1 p66/p51 reverse transcriptase K103N/Y181C double mutant/nucleic acid/dTTP ternary complex assessed as dissociation constant using poly(rA)/oligo(dT) as templates in presence of [3H]dTTP.
In assay [11] the target is Human immunodeficiency virus type 1 reverse transcriptase (Human immunodeficiency virus 1) (UniProt Q72547). In words: Ratio of Kon of wild type HIV-1 p66/p51 reverse transcriptase/nucleic acid binary complex to Kon of wild type HIV-1 p66/p51 reverse transcriptase/nucleic acid/dTTP ternary complex using poly(rA)/oligo(dT) as templates in presence of [3H]dTTP.
Assay [12] has the same target. In words: Ratio of Koff of wild type HIV-1 p66/p51 reverse transcriptase/nucleic acid binary complex to Koff of wild type HIV-1 p66/p51 reverse transcriptase/nucleic acid/dTTP ternary complex using poly(rA)/oligo(dT) as templates in presence of [3H]dTTP.

One compound from ChEMBL document CHEMBL4706559, “New indolylarylsulfone non-nucleoside reverse transcriptase inhibitors show low nanomolar inhibition of single and double HIV-1 mutant strains” (Eur J Med Chem, 2020) can be followed below.

With `Cc1cc(C)cc(S(=O)(=O)c2c(C(=O)NCc3ccccc3O)[nH]c3ccc(Cl)cc23)c1`, the Vmax(app) in [1] came to 1.2%; in assay [3] it was 2.9%. Moreover, the figures for the Km in [2], in [4] and in [5] were 0.104 µM, 5.8 µM and 1.9 µM, respectively. In addition, the Ki in assay [6] stood at 78 nM. The K in assay [7] is 96 10^-5/nM/s; in assay [8], 35 10^-3/s; in assay [9], 4.1 10^-3/s; in [10], 33 10^-3/s. The Ratio in assay [11] was determined as 7; in assay [12], 8.

The term Km denotes the substrate concentration at which the rate is half of its maximum. As a reminder, the Ki is a measure of affinity in units of concentration, obtained from inhibition or displacement.
